Results published in the supplement of paper PMC13207355.
Where a name gives a salt, the structure may show the parent alone.

Experiments:
Conditions in all cases: exposure time: 72 h
E28 [1] = patient-derived glioblastoma stem cells of classical subtype; experiment: surviving fraction (nuclei count normalised to DMSO); higher = more cells surviving (less toxic)
E21 [2] = patient-derived glioblastoma stem cells of mesenchymal subtype; experiment: as above
E13 [3] = patient-derived glioblastoma stem cells of classical subtype; experiment: as above
E31 [4] = patient-derived glioblastoma stem cells of proneural subtype; experiment: as above
FT3469 [5] = normal neural stem cell line; experiment: as above
E34 [6] = patient-derived glioblastoma stem cells of proneural subtype; experiment: as above
E57 [7] = patient-derived glioblastoma stem cells of mesenchymal subtype; experiment: as above
E28 [8] = experiment: phenotypic distance (Euclidean, principal components) from DMSO controls (arbitrary units); higher = stronger morphological change
E21 [9] = experiment: as above
E13 [10] = experiment: as above
E31 [11] = experiment: as above
FT3469 [12] = experiment: as above
E34 [13] = experiment: as above
E57 [14] = experiment: as above
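Wherever phenotypic distance (Euclidean, principal components) from DMSO controls is given: cell Painting imaging in 384-well plates, CellProfiler features reduced to at least 20 principal components, Euclidean distance versus same-plate DMSO vehicle wells (0.1% v/v), median over six images per well.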
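Wherever surviving fraction (nuclei count normalised to DMSO) is given: nuclei counted by high-content imaging of Hoechst-stained cells in laminin-coated 384-well plates, relative to 0.1% DMSO vehicle wells, with staurosporine as cell-death control.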

Cc1cc(/C=C/c2ccc3cc(N(C)C)ccc3[n+]2C)c(C)n1-c1ccccc1 [Pyrvinium pamoate]
Conditions	phenotypic distance	surviving fraction
E13 [3], 4.1 nM	–	0.769
E13 [3], 12.3 nM	–	0.742
E13 [3], 37 nM	–	0.57
E13 [3], 111.1 nM	–	0.408
E13 [3], 333.3 nM	–	0.479
E13 [3], 1000 nM	–	0.264
E13 [3], 3000 nM	–	0.0823
E13 [10], 4.1 nM	4.29	–
E13 [10], 12.3 nM	1.32	–
E13 [10], 37 nM	2.18	–
E13 [10], 111.1 nM	4.63	–
E13 [10], 333.3 nM	4.15	–
E13 [10], 1000 nM	4.49	–
E13 [10], 3000 nM	6.77	–
E21 [2], 4.1 nM	–	0.856
E21 [2], 12.3 nM	–	0.815
E21 [2], 37 nM	–	0.577
E21 [2], 111.1 nM	–	0.467
E21 [2], 333.3 nM	–	0.425
E21 [2], 1000 nM	–	0.149
E21 [2], 3000 nM	–	0.00213
E21 [9], 4.1 nM	0.978	–
E21 [9], 12.3 nM	1.16	–
E21 [9], 37 nM	2.86	–
E21 [9], 111.1 nM	4.87	–
E21 [9], 333.3 nM	4.65	–
E21 [9], 1000 nM	6.33	–
E21 [9], 3000 nM	23.7	–
E28 [1], 4.1 nM	–	0.853
E28 [1], 12.3 nM	–	0.704
E28 [1], 37 nM	–	0.547
E28 [1], 111.1 nM	–	0.278
E28 [1], 333.3 nM	–	0.195
E28 [1], 1000 nM	–	0.106
E28 [1], 3000 nM	–	0.0134
E28 [8], 4.1 nM	0.873	–
E28 [8], 12.3 nM	1.67	–
E28 [8], 37 nM	2.93	–
E28 [8], 111.1 nM	4.57	–
E28 [8], 333.3 nM	4.5	–
E28 [8], 1000 nM	4.93	–
E28 [8], 3000 nM	9.86	–
E31 [4], 4.1 nM	–	1.01
E31 [4], 12.3 nM	–	0.828
E31 [4], 37 nM	–	0.484
E31 [4], 111.1 nM	–	0.21
E31 [4], 333.3 nM	–	0.146
E31 [4], 1000 nM	–	0.0654
E31 [4], 3000 nM	–	0
E31 [11], 4.1 nM	1.33	–
E31 [11], 12.3 nM	1.04	–
E31 [11], 37 nM	2.33	–
E31 [11], 111.1 nM	5.34	–
E31 [11], 333.3 nM	7.12	–
E31 [11], 1000 nM	9.54	–
E31 [11], 3000 nM	18.8	–
E34 [6], 4.1 nM	–	0.92
E34 [6], 12.3 nM	–	0.867
E34 [6], 37 nM	–	0.645
E34 [6], 111.1 nM	–	0.578
E34 [6], 333.3 nM	–	0.667
E34 [6], 1000 nM	–	0.443
E34 [6], 3000 nM	–	0.5
E34 [13], 4.1 nM	0.966	–
E34 [13], 12.3 nM	0.752	–
E34 [13], 37 nM	1.33	–
E34 [13], 111.1 nM	3.14	–
E34 [13], 333.3 nM	3.58	–
E34 [13], 1000 nM	4.06	–
E34 [13], 3000 nM	6.46	–
E57 [7], 4.1 nM	–	1.05
E57 [7], 12.3 nM	–	1.01
E57 [7], 37 nM	–	0.785
E57 [7], 111.1 nM	–	0.364
E57 [7], 333.3 nM	–	0.272
E57 [7], 1000 nM	–	0.155
E57 [7], 3000 nM	–	0.0231
E57 [14], 4.1 nM	1.23	–
E57 [14], 12.3 nM	0.86	–
E57 [14], 37 nM	2.14	–
E57 [14], 111.1 nM	6.51	–
E57 [14], 333.3 nM	7.55	–
E57 [14], 1000 nM	8.44	–
E57 [14], 3000 nM	11.2	–
FT3469 [5], 4.1 nM	–	0.97
FT3469 [5], 12.3 nM	–	0.882
FT3469 [5], 37 nM	–	0.866
FT3469 [5], 111.1 nM	–	0.677
FT3469 [5], 333.3 nM	–	0.61
FT3469 [5], 1000 nM	–	0.461
FT3469 [5], 3000 nM	–	0.0541
FT3469 [12], 4.1 nM	1.38	–
FT3469 [12], 12.3 nM	1.31	–
FT3469 [12], 37 nM	2.27	–
FT3469 [12], 111.1 nM	2.94	–
FT3469 [12], 333.3 nM	3.78	–
FT3469 [12], 1000 nM	7.4	–
FT3469 [12], 3000 nM	13	–

CCN(CC)CCCC(C)Nc1c2ccc(Cl)cc2nc2ccc(OC)cc12 (stereo unspecified) [Quinacrine dihydrochloride hydrate]
Conditions	phenotypic distance	surviving fraction
E13 [3], 4.11523 nM	–	0.934
E13 [3], 12.34567901 nM	–	0.901
E13 [3], 37.037 nM	–	0.789
E13 [3], 111.1111111 nM	–	0.985
E13 [3], 333.333 nM	–	0.993
E13 [3], 1000 nM	–	0.911
E13 [3], 3000 nM	–	0.709
E13 [10], 4.11523 nM	0.636	–
E13 [10], 12.34567901 nM	0.492	–
E13 [10], 37.037 nM	0.777	–
E13 [10], 111.1111111 nM	0.595	–
E13 [10], 333.333 nM	2.11	–
E13 [10], 1000 nM	3.45	–
E13 [10], 3000 nM	1.42	–
E21 [2], 4.11523 nM	–	0.908
E21 [2], 12.34567901 nM	–	0.974
E21 [2], 37.037 nM	–	1
E21 [2], 111.1111111 nM	–	0.955
E21 [2], 333.333 nM	–	1.05
E21 [2], 1000 nM	–	1.09
E21 [2], 3000 nM	–	0.71
E21 [9], 4.11523 nM	0.539	–
E21 [9], 12.34567901 nM	0.4	–
E21 [9], 37.037 nM	0.451	–
E21 [9], 111.1111111 nM	0.853	–
E21 [9], 333.333 nM	0.649	–
E21 [9], 1000 nM	1.12	–
E21 [9], 3000 nM	1.66	–
E28 [1], 4.11523 nM	–	1.09
E28 [1], 12.34567901 nM	–	1.03
E28 [1], 37.037 nM	–	0.987
E28 [1], 111.1111111 nM	–	1.11
E28 [1], 333.333 nM	–	1.05
E28 [1], 1000 nM	–	1.13
E28 [1], 3000 nM	–	0.69
E28 [8], 4.11523 nM	0.665	–
E28 [8], 12.34567901 nM	0.451	–
E28 [8], 37.037 nM	0.457	–
E28 [8], 111.1111111 nM	0.704	–
E28 [8], 333.333 nM	0.722	–
E28 [8], 1000 nM	0.455	–
E28 [8], 3000 nM	1.98	–
E31 [4], 4.11523 nM	–	0.883
E31 [4], 12.34567901 nM	–	1.02
E31 [4], 37.037 nM	–	1.06
E31 [4], 111.1111111 nM	–	1.14
E31 [4], 333.333 nM	–	0.914
E31 [4], 1000 nM	–	1.16
E31 [4], 3000 nM	–	0.516
E31 [11], 4.11523 nM	1.19	–
E31 [11], 12.34567901 nM	0.694	–
E31 [11], 37.037 nM	0.513	–
E31 [11], 111.1111111 nM	0.784	–
E31 [11], 333.333 nM	0.524	–
E31 [11], 1000 nM	0.913	–
E31 [11], 3000 nM	2.12	–
E34 [6], 4.11523 nM	–	0.882
E34 [6], 12.34567901 nM	–	0.943
E34 [6], 37.037 nM	–	0.902
E34 [6], 111.1111111 nM	–	0.99
E34 [6], 333.333 nM	–	1.21
E34 [6], 1000 nM	–	0.998
E34 [6], 3000 nM	–	0.806
E34 [13], 4.11523 nM	0.829	–
E34 [13], 12.34567901 nM	1.53	–
E34 [13], 37.037 nM	0.456	–
E34 [13], 111.1111111 nM	0.849	–
E34 [13], 333.333 nM	1.06	–
E34 [13], 1000 nM	1.21	–
E34 [13], 3000 nM	0.812	–
E57 [7], 4.11523 nM	–	0.945
E57 [7], 12.34567901 nM	–	1.05
E57 [7], 37.037 nM	–	0.97
E57 [7], 111.1111111 nM	–	1.13
E57 [7], 333.333 nM	–	1.04
E57 [7], 1000 nM	–	1.1
E57 [7], 3000 nM	–	1.04
E57 [14], 4.11523 nM	1.09	–
E57 [14], 12.34567901 nM	1.14	–
E57 [14], 37.037 nM	0.424	–
E57 [14], 111.1111111 nM	0.923	–
E57 [14], 333.333 nM	0.838	–
E57 [14], 1000 nM	1.18	–
E57 [14], 3000 nM	2.11	–
FT3469 [5], 4.11523 nM	–	1.04
FT3469 [5], 12.34567901 nM	–	1.01
FT3469 [5], 37.037 nM	–	0.948
FT3469 [5], 111.1111111 nM	–	1.1
FT3469 [5], 333.333 nM	–	1.02
FT3469 [5], 1000 nM	–	1.1
FT3469 [5], 3000 nM	–	0.826
FT3469 [12], 4.11523 nM	0.574	–
FT3469 [12], 12.34567901 nM	0.546	–
FT3469 [12], 37.037 nM	0.759	–
FT3469 [12], 111.1111111 nM	0.562	–
FT3469 [12], 333.333 nM	0.547	–
FT3469 [12], 1000 nM	0.651	–
FT3469 [12], 3000 nM	2.59	–
